For one test, the system named is Avena. The experiment in a line: Post-emergence test, herbicidal activity on Avena. To be noted: 21 days after application, average of 3 tests. The test is classed as in vivo. The text has this: (§1) The test plants (Avena and winter wheat) are raised under greenhouse conditions in seed trays to a post-application stage (1.5- to 2-leaf stage). Pinoxaden is then applied to the test plants either alone or in admixture with component b) and optionally c). For both applications an additive is used which contains per litre 45% by weight Agnique ME 18 RD-F and 25% by weight Emulsogen M in Solvesso 200 ND. Application of pinoxaden is effected in the form of an emulsifiable concentrate (EC 100), and component b) and optionally c) is used in the form of WP 25. Those formulations are used to prepare spray mixtures, each of 200 litres, which contain 50 g or 100 g of pinoxaden and component b) and optionally c) and in each case 0.5% of additive (based on the volume of the spray mixtures). The tests are evaluated 21 days after application (herbicidal activity 100%=plant completely dead; herbicidal activity 0%=no phytotoxic action on the plant). The results, which are values averaged from 3 tests, are compiled in the following Table.

A further test has as its system winter wheat. The experiment in a line: Post-emergence test, herbicidal activity on winter wheat. The test is classed as in vivo. To be noted: 21 days after application, average of 3 tests.
Source text: as §1

The mark [1] stands for this setting: 100 g/ha pinoxaden + 0.5% additive.

Each structure is given as a SMILES string.

Regarding `CCc1cc(C)cc(CC)c1-c1c(OC(=O)C(C)(C)C)n2n(c1=O)CCOCC2` [pinoxaden], the “Herbicidal activity on Avena” value is 82% in the test on Avena (50 g/ha pinoxaden + 0.5% additive, 100%=plant completely dead) and 87% in the test on Avena (setting [1]). The “Herbicidal activity on Winter wheat” value in the test on winter wheat (50 g/ha pinoxaden + 0.5% additive, 0%=no phytotoxic action) is 8%; in the test on winter wheat (setting [1]), 8%.
